Data published in patent EP0501713B1, “Optically active aminoketone derivative and method for preparing same” (MITSUI TOATSU CHEMICALS, Inc., priority 1991, dated 1992).

Key:
[1] = system: decerebrate rigidity induced by radio frequency lesions of rat brains; test: Decerebrate rigidity remission action (method of Ono et al.); type: in vivo, Wistar male rat; conditions: i.v., tension before administration = 100%
Source text: Pharmacol., 18, 57 (1987)], the rigidity remission action of the optically active aminoketone derivative of the present invention for the decerebrate rigidity induced by radio frequency lesions of rat brains was investigated.
Each Wistar male rat (body weight: 300-400 g) was anesthetized with ether and then fixed on a stereotaxic apparatus. In accordance with the Pellegrino's stereotaxic brain atlas, the electrodes of a lesion generator (manufactured by Radionics Company) were punctuated to AP: 0, L: ±1.5, V: -3. […] The rigidified rat was fixed in the abdominal position, and the tension of each extension reflex of the extensor of the hind limbs was recorded. Assuming that the tension before the administration was 100%, the rate of rigidity inhibition is expressed in terms of percentage: (100 -(Tension after administration)/(Tension before administration)× 100) [formula]
The test compounds were intravenously administered at 3 and 6 mg/kg.

Acute toxicity = type: in vivo; conditions: mouse, in vivo, ip, intraperitoneally administered; mice observed 72 hours later
Procedure: (§1) ddy Male mice (body weights: 25-30 g) were used. Each test compound was intraperitoneally administered, and 72 hours later, the mice were observed as to whether they were alive or dead.
(§2) 50% lethal doses LD50 (mg/kg) were calculated.

[2] = system: skeletal muscle afferent discharge; test: Action to skeletal muscle afferent discharge (musculus triceps surae nerve fiber); type: in vivo, Wistar rats; conditions: i.v., rat, discharge frequency before administration = 100%, tension of 20 g
Source text: The musculus triceps surae was separated from each of Wistar rats (9 to 10 weeks old; Japanese rats) under a mixed anesthetic of urethane and α-chlorarose. There were cut out all the branches of the sciatic nerve except the branch which controls the musculus triceps surae. The medulla spinalis was subjected to laminectomy, and roots of L6 or less were cut out. […] A nerve fiber coming from the musculus triceps surae was only separated from the L5 posterior root. A tension of 20 g was applied to the peripheral end of the musculus triceps surae, and each discharge frequency of the nerve was recorded. Assuming that the discharge frequency before the administration is 100%, the discharge frequency of the nerve was expressed in terms of percentage: (100 -(Discharge frequency at most inhibition)/(Discharge frequency before administration)× 100) [formula]
The test compounds were intravenously administered at 6 and 12 mg/kg.

ddy Male mice = test: Acute toxicity; type: in vivo; conditions: intraperitoneally administered; mice observed 72 hours later; 4320 min
Procedure: as §1, §2

## CCC(CN1CCCC1)C(=O)c1cc(-c2ccccc2)no1 (racemic) [racemic form, 3-phenyl-5-[2-(1-pyrrolidinylmethyl)butyryl]isoxazole, reference compound]
[1]; 3 mg/kg
  Rigidity Inhibition (%): 56%
[1]; 6 mg/kg
  Rigidity Inhibition (%): 65%
Acute toxicity
  LD50 at 72 h: 445 mg/kg
[2]; 6 mg/kg
  Discharge Frequency (%): 46%
[2]; 12 mg/kg
  Discharge Frequency (%): 27%

## CCC(CN1CCCC1)C(=O)c1cc(-c2ccccc2)no1 (single isomer, unassigned; (+)) [(+) form, (+)-3-phenyl-5-[2-(1-pyrrolidinylmethyl)butyryl]isoxazole]
[1]; 3 mg/kg
  Rigidity Inhibition (%): 59%
[1]; 6 mg/kg
  Rigidity Inhibition (%): 78%
Acute toxicity
  LD50 at 72 h: 386 mg/kg
[2]; 6 mg/kg
  Discharge Frequency (%): 28%
[2]; 12 mg/kg
  Discharge Frequency (%): 14%

## CCC(CN1CCCC1)C(=O)c1cc(-c2ccccc2)no1 (single isomer, unassigned; (-)) [(-) form, (-)-3-phenyl-5-[2-(1-pyrrolidinylmethyl)butyryl]isoxazole]
[1]; 3 mg/kg
  Rigidity Inhibition (%): 33%
[1]; 6 mg/kg
  Rigidity Inhibition (%): 53%
Ddy Male mice
  LD50: 760 mg/kg
[2]; 6 mg/kg
  Discharge Frequency (%): 83%
